Assay results: PMC8066102, “Metabolic Profiles of New Unsymmetrical Bisacridine Antitumor Agents in Electrochemical and Enzymatic Noncellular Systems and in Tumor Cells” (Pharmaceuticals, 2021)

Tests used:
Assay type in all cases: in vitro ADME
P4503A4 = molecular target: T1, P4503A4 (Homo sapiens, UniProt P08684); assay: Metabolism with human recombinant P4503A4; conditions: 0.05 mM compound, 1 mg/mL P4503A4, 2 mM NADPH, 30 min
T1 construct: purchased Cypex, Dundee, Scotland, UK (through Tebu-Bio); host or cells: Escherichia coli (Bactosomes)
Experimental: (§1) UT-RLMs (2 mg/mL) and P450-RLMs induced with Dex, 3MC, or PB and recombinant P4502C19 and P4503A4 (1 mg/mL) were assayed for activity toward tested UAs as follows. The proteins were incubated in a buffer containing 0.1 M HEPES (pH 7.4), 2 mM MgCl2 with 0.05 mM substrate in total volume 70 µL. Substrates were added also in buffer HEPES, pH 7.4. Reactions were started by the addition of NADPH (2 mM) and were incubated for specified time at 37 °C. The reactions were stopped by the addition of 8.75 µL of 1 M HCl, followed by centrifugation at 13,400 rpm for 10 min to pellet the denatured protein. The supernatant fractions were used for high-performance liquid chromatography (HPLC) analysis. Control reactions omitting substrate were run with each assay. All incubations were performed in two repetitions.

P4502C19 = molecular target: T2, P4502C19 (Homo sapiens, UniProt P33261); assay: Metabolism with human recombinant P4502C19; conditions: 0.05 mM compound, 1 mg/mL P4502C19, 2 mM NADPH, 30 min
T2 construct: purchased Cypex, Dundee, Scotland, UK (through Tebu-Bio); host or cells: Escherichia coli (Bactosomes)
Experimental: as §1

UGT 1A9 = molecular target: T3, UGT 1A9 (Homo sapiens, UniProt O60656); assay: Glucuronidation with recombinant UGT1A9; set-up: key: −: the lack of UGT activity; +: the significant UGT activity; conditions: 0.05 mM compound, 1 mg/mL UGT, 5 mM UDPGA
T3 construct: His tag; purchased Corning, NY, USA (through DIAG-MED, Poland); host or cells: baculovirus-insect cells (Supersomes); Results say Sf9 cells
T3 sequence (O60656 26-530): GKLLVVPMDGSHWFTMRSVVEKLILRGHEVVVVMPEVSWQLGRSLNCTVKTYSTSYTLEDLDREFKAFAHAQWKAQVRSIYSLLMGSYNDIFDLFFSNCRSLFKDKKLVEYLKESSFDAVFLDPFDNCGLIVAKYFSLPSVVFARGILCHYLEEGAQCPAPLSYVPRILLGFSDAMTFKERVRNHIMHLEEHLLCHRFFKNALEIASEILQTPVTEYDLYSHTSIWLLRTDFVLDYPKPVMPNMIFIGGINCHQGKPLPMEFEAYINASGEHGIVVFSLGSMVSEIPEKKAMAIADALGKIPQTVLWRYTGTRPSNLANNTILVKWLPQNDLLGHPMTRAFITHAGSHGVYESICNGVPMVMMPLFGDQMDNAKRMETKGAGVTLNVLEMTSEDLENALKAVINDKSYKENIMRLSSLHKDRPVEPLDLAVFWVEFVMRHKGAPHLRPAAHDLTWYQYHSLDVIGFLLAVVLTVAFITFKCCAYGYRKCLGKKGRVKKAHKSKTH
Experimental: (§2) Recombinant UGT isoform protein (1 mg/mL) was assayed for activity toward tested UAs as follows. The proteins were incubated in a buffer containing 0.1 M HEPES (pH 7.4), 8 mM MgCl2 and alamethicin (25 μg/mL) with either 0.05 mM substrate in total volume 70 µL (alamethicin was added to permeabilize the membrane). Substrates were also in buffer HEPES, pH 7.4. Reactions were started by the addition of UDPGA (5 mM) and were incubated for specified time at 37 °C. The reactions were stopped by the addition of 8.75 µL of 1 M HCl, followed by centrifugation at 13400 rpm for 10 min to pellet the denatured protein. The supernatant fractions were used for HPLC analysis. Control reactions omitting substrate were run with each assay. All incubations were performed in two repetitions.

UGT 1A10 = molecular target: T4, UGT 1A10 (Homo sapiens, UniProt Q9HAW8); assay: Glucuronidation with recombinant UGT1A10; set-up: key to Glucuronidation potency UGT 1A10: −: the lack of UGT activity; +: the significant UGT activity; conditions: 0.05 mM compound; for Glucuronidation potency UGT 1A10: 1 mg/mL UGT, 5 mM UDPGA
T4 construct: His tag; purchased Corning, NY, USA (through DIAG-MED, Poland); host or cells: baculovirus-insect cells (Supersomes); Results say Sf9 cells
T4 sequence (Q9HAW8 26-530): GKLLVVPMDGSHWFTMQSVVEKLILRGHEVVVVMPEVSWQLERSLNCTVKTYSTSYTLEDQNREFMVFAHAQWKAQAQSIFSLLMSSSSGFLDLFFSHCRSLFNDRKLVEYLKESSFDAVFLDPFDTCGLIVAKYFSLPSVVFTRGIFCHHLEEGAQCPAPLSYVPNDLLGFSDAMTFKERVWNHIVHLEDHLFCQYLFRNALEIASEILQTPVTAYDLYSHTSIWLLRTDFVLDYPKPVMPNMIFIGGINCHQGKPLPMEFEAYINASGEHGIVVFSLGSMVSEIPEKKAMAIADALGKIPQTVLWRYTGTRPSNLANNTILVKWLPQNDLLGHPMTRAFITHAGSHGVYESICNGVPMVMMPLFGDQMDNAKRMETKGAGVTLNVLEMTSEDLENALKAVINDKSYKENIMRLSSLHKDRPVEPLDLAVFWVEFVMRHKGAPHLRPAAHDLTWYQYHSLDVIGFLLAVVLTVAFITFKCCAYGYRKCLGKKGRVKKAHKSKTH
Experimental: as §2

UGT2B15 = molecular target: T5, UGT2B15 (Homo sapiens, UniProt P54855); assay: Glucuronidation with recombinant UGT2B15; set-up: key: −: the lack of UGT activity; +: the significant UGT activity; conditions: 0.05 mM compound, 1 mg/mL UGT, 5 mM UDPGA
T5 construct: purchased Corning, NY, USA (through DIAG-MED, Poland); host or cells: baculovirus-insect cells (Supersomes)
T5 sequence (P54855 24-530): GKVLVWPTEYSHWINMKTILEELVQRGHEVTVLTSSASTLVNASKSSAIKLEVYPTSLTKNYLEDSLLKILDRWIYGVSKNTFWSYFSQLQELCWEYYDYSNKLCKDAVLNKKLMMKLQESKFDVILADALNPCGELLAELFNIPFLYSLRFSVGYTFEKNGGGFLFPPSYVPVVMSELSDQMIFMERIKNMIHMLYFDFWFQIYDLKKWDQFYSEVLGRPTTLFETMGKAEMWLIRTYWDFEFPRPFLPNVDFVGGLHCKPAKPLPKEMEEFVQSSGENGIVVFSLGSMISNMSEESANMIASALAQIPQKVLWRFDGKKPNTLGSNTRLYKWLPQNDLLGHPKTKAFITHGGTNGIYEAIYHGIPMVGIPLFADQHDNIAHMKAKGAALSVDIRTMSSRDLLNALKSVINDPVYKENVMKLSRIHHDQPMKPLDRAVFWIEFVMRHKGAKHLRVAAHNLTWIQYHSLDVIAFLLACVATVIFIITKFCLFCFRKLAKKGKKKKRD
Experimental: as §2

T1 sequence (P08684 whole entry): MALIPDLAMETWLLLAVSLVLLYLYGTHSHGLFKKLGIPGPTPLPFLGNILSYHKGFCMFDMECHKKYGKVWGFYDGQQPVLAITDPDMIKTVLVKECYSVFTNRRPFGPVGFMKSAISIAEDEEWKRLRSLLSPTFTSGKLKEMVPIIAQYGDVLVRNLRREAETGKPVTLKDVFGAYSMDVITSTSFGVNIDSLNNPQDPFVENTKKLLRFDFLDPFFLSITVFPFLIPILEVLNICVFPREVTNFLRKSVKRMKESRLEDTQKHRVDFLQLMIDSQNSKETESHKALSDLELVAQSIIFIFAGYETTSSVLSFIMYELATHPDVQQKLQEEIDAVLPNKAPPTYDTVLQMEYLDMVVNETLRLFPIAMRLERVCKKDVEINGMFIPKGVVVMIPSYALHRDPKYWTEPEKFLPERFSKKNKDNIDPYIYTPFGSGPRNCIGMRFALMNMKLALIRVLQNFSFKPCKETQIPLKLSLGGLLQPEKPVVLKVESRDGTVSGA
T2 sequence (P33261 whole entry): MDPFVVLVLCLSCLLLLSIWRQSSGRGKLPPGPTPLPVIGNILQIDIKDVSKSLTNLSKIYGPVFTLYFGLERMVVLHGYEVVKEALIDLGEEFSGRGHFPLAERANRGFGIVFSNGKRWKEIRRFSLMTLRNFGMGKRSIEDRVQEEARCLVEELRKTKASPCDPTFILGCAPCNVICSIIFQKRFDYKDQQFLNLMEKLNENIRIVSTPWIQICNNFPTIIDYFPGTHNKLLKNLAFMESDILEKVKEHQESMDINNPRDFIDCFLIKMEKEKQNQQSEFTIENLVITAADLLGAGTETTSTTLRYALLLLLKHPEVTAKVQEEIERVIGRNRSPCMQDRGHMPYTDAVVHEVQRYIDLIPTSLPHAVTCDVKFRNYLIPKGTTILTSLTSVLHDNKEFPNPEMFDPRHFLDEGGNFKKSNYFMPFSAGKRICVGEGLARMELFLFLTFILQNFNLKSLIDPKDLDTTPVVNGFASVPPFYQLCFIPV

Row | Compound | substrate transformed (P4503A4) | substrate transformed (P4502C19) | Glucuronidation potency UGT 1A9 (UGT 1A9) | Glucuronidation potency UGT 1A10 (UGT 1A10) | Glucuronidation potency UGT 2B15 (UGT2B15) | rate of metabolism (glucuronidation) with UGT1A10 (UGT 1A10; 1 mg/mL UGT1A10, 5 mM UDPGA, 120 min)
1 | CN(CCCNc1c2ccccc2nc2cccc([N+](=O)[O-])c12)CCCNc1ccc2ncn3c4ccccc4c(=O)c1c23 [C-2028] | 72% | 59% | − | − | − | 
2 | Cc1ccc([N+](=O)[O-])c2c(NCCCN(C)CCCNc3ccc4ncn5c6ccc(O)cc6c(=O)c3c45)c3ccccc3nc12 [C-2045] | 30% | 11% | + | + | − | 18%
3 | Cc1ccc([N+](=O)[O-])c2c(NCCCN(C)CCCNc3ccc4ncn5c6ccccc6c(=O)c3c45)c3ccccc3nc12 [C-2053] | approximately 77% | ~64% | − | − | − | 
